Measurements reported in PubChem BioAssay AID1918948 (Molecular Pharmacology Branch, DTP, NCI, 2023).

Test system: K-562 leukemia growth, % test/control
Test: Anticancer human tumor K-562 cell line growth inhibition;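 note: spheroids exposed to compounds for 7 days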;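 for viability, T/C: 100% = DMSO vehicle wells and lower values mean fewer viable cells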
Conditions: spheroids with HUVEC and MSC; for IC50: curve of first compound; for viability, T/C: stronger effect = lower value
Outline: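 Drug combinations with the LSD1 inhibitor iadademstat tested on tumor cells co-cultured as spheroids with endothelial cells and mesenchymal stem cells. Concentrations descended in half-log increments from clinical Cmax or 10 microM.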

[1] = second compound 0.1 µM, first compound 0.0316 µM
[2] = second compound 0.1 µM, first compound 0.1 µM
[3] = second compound 0.1 µM, first compound 0.316 µM
[4] = second compound 0.1 µM, first compound 1 µM
[5] = second compound 0.1 µM, first compound 3.16 µM
[6] = second compound 0.1 µM, first compound 10 µM
[7] = second compound 0.316 µM, first compound 0.0316 µM
[8] = second compound 0.316 µM, first compound 0.1 µM
[9] = second compound 0.316 µM, first compound 0.316 µM
[10] = second compound 0.316 µM, first compound 1 µM
[11] = second compound 0.316 µM, first compound 3.16 µM
[12] = second compound 0.316 µM, first compound 10 µM
[13] = second compound 1 µM, first compound 0.0316 µM
[14] = second compound 1 µM, first compound 0.1 µM
[15] = second compound 1 µM, first compound 0.316 µM
[16] = second compound 1 µM, first compound 1 µM
[17] = second compound 1 µM, first compound 3.16 µM
[18] = second compound 1 µM, first compound 10 µM
[19] = second compound 3.16 µM, first compound 0.0316 µM
[20] = second compound 3.16 µM, first compound 0.1 µM
[21] = second compound 3.16 µM, first compound 0.316 µM
[22] = second compound 3.16 µM, first compound 1 µM
[23] = second compound 3.16 µM, first compound 3.16 µM
[24] = second compound 3.16 µM, first compound 10 µM
[25] = second compound 10 µM, first compound 0.0316 µM
[26] = second compound 10 µM, first compound 0.1 µM
[27] = second compound 10 µM, first compound 0.316 µM
[28] = second compound 10 µM, first compound 1 µM
[29] = second compound 10 µM, first compound 3.16 µM
[30] = second compound 10 µM, first compound 10 µM

Structure (SMILES)	IC50 (second compound 0.1 µM)	IC50 (second compound 0.316 µM)	IC50 (second compound 1 µM)	IC50 (second compound 3.16 µM)	IC50 (second compound 10 µM)	viability, T/C [1]	viability, T/C [2]	viability, T/C [3]	viability, T/C [4]	viability, T/C [5]	viability, T/C [6]	viability, T/C [7]	viability, T/C [8]	viability, T/C [9]	viability, T/C [10]	viability, T/C [11]	viability, T/C [12]	viability, T/C [13]	viability, T/C [14]	viability, T/C [15]	other results
CC(C)c1c(-c2ccccc2)nc2c(C#N)c[nH]n2c1=O + NC1CCC(NC2CC2c2ccccc2)CC1	> 10 µM	> 10 µM	> 10 µM	> 10 µM	> 10 µM	98.7%	95.2%	96.6%	100%	99.1%	98.9%	100%	101%	99.8%	98.6%	99.6%	98.9%	102%	102%	100%	viability, T/C [16]: 99.4%; viability, T/C [17]: 100%; viability, T/C [18]: 101%; viability, T/C [19]: 102%; viability, T/C [20]: 102%; viability, T/C [21]: 99.7%; viability, T/C [22]: 102%; viability, T/C [23]: 103%; viability, T/C [24]: 100%; viability, T/C [25]: 95.6%; viability, T/C [26]: 98.7%; viability, T/C [27]: 96.8%; viability, T/C [28]: 97%; viability, T/C [29]: 97.9%; viability, T/C [30]: 98.4%
COc1ccc([C@@H](O)c2cc(-c3ncnc4cc(N5CCOCC5)ccc34)c(F)cc2Cl)nn1 + NC1CCC(NC2CC2c2ccccc2)CC1	9.23 µM	9.9 µM	> 10 µM	9.83 µM	8.18 µM	100%	100%	101%	103%	96.6%	46.5%	101%	101%	104%	106%	98.2%	49.5%	105%	103%	105%	viability, T/C [16]: 105%; viability, T/C [17]: 98.2%; viability, T/C [18]: 51.8%; viability, T/C [19]: 101%; viability, T/C [20]: 102%; viability, T/C [21]: 103%; viability, T/C [22]: 104%; viability, T/C [23]: 97.4%; viability, T/C [24]: 49.2%; viability, T/C [25]: 99.5%; viability, T/C [26]: 101%; viability, T/C [27]: 101%; viability, T/C [28]: 98.2%; viability, T/C [29]: 91.8%; viability, T/C [30]: 41%
